In US20120184744A1, “CRYSTALLINE HYDROCHLORIDE SALTS OF C-MET KINASE INHIBITORS” (priority 2009, published 2012):
Structures can show the parent of a compound that is named as a salt.

What was measured:
Assay type in all cases: physicochemical
[1] = Crystal form conversion on exposure to relative humidity; details: room temperature
Description: (§1) It rehydrates and converts back to the mono-HCl salt hydrate when exposed to higher than 75% relative humidity at room temperature. The mono-HCl salt anhydrate Form II can also convert to crystalline mono-HCl salt anhydrate Form I when slurried in Acetone:H2O co-solvent or other co-solvent systems with water activity below 0.57-0.60.
The 1.6-HCl salt anhydrate of Compound A is further characterized by reflections corresponding to d-spacings of 5.03, 4.30, and 4.14 angstroms. The 1.6-HCl salt anhydrate of Compound A is even further characterized by reflections corresponding to d-spacings of 3.93, 3.63, and 3.50 angstroms. The 1.6-HCl salt anhydrate converts to the 1.6-HCl salt hydrate upon exposure to 10-95% relative humidity at room temperature.

[2] = Slurry experiment in organic solvent:H2O co-solvent (transition water activity, form conversion)
Procedure: This transition water activity was determined based on slurry experiment in Acetone:H2O, DMF:H2O and THF:H2O co-solvent. […] Crystalline mono-HCl salt hydrate dehydrates and converts to mono-HCl salt anhydrate Form II when exposed to low relative humidity or heated at high temperature.
as §1

[3] = Physical stability of the solid on storage under controlled temperature/relative humidity; details: for physical stability after storage: 5 months
[4] = Solubility in 14.6 wt % IPA in DMF; details: organic solvent or mixture
Procedure: To prepare the mono-HCl salt anhydrate Form I of Compound A, dissolve 1.00 g of Compound A freebase monohydrate in 7.0 mL (6.65 g) DMF at 55° C. Next, charge 0.05 eq of HCl. Then, charge 0.25 wt % media-milled seed ([…] of API). The solubility of Compound A HCl seed in 14.6 wt % IPA in DMF is <2 mg/mL. Age seed bed for 1 hr. Next, charge 0.92 eq of HCl over 8 hrs (linear charge rate) holding batch at 55. No dispersion is required. Total HCl charge is 0.97 eq. Cool the batch from 55° C. to 22° C. over 1 hr. Hold batch at 22° C. for one hour, then filter.

For `Cn1cc(-c2cnc3ccc4ccc(CS(=O)(=O)NCc5ccccn5)cc4c(=O)c3c2)cn1` [1.6-HCl salt anhydrate], the “relative humidity at which it converts to the 1.6-HCl salt hydrate” value [1] was 10-95%.

With `Cn1cc(-c2cnc3ccc4ccc(CS(=O)(=O)NCc5ccccn5)cc4c(=O)c3c2)cn1` [mono-HCl salt hydrate] the “transition water activity above which the mono-HCl salt hydrate is thermodynamically more stable than mono-HCl salt anhydrate Form I” value ([2]; room temperature or 40° C., slurry in Acetone:H2O, DMF:H2O and THF:H2O co-solvent) was 0.57-0.60.

With `Cn1cc(-c2cnc3ccc4ccc(CS(=O)(=O)NCc5ccccn5)cc4c(=O)c3c2)cn1` [Form I] the “physical stability after storage” value ([3]; 40° C./75% relative humidity) was “physically stable”, the “physical stability after storage” value ([3]; room temperature/53% relative humidity) was “physically stable” and the “physical stability after storage” value ([3]; room temperature/85% relative humidity) was “physically stable”. The “solid conversion to the mono-HCl salt hydrate” value ([3]; solid state, on storage) was “has not been observed”.

For `Cn1cc(-c2cnc3ccc4ccc(CS(=O)(=O)NCc5ccccn5)cc4c(=O)c3c2)cn1` [mono-HCl salt anhydrate Form II], the “relative humidity at which it rehydrates and converts back to the mono-HCl salt hydrate” value [1] was “higher than 75%” and the “water activity at which it converts to mono-HCl salt anhydrate Form I” value ([2]; slurried in Acetone:H2O co-solvent or other co-solvent systems) was 0.57-0.60.

In the case of `Cn1cc(-c2cnc3ccc4ccc(CS(=O)(=O)NCc5ccccn5)cc4c(=O)c3c2)cn1` [Compound A HCl seed], the solubility [4] is reported as < 2000 µg/mL.
